Source: patent publication US10307413B2, “Tetrahydro- and dihydro-isoquinoline PRMT5 inhibitors and uses thereof” (Epizyme, Inc., priority 2013, dated 2019)
Where two headings read alike, the source gives them in different places.

Key:
[1] = target: PRMT5/MEP50 (Homo sapiens (Human), UniProt O14744); assay: PRMT5 Biochemical Assay (PRMT5/MEP50 enzyme assay on peptide substrate, 3H-SAM Flashplate)
Method in brief: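 Radiometric methylation of a biotin-tagged H4(1-15) peptide by human PRMT5/MEP50 from baculovirus/Sf9, with ³H-SAM incorporation read on streptavidin Flashplates. Buffer: Bicine pH 7.6, TCEP, BSG, Tween20; compound preincubated 30 min at 25 °C; stopped with 600 µM final unlabeled SAM. DMSO and SAH controls; IC50 from fitted % inhibition.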

[2] = tested on: symmetric di-methyl arginine in Z-138 cells; assay: Z-138 Methylation Assay (In Cell Western for symmetric di-methyl arginine and DNA content); format: cell-based; conditions: Homo sapiens, read-out: ICW EC50
Method in brief: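 Z-138 cells (50,000 cells/mL) treated with compound 96 h at 37 °C, then fixed and stained for symmetric di-methyl arginine (800 nm) with DRAQ5 DNA counterstain (700 nm) on Licor Odyssey.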

[3] = tested on: Z-138 cell line; assay: Z-138 Proliferation Assay (Cell Titer Glo, 5 days); format: cell-based; conditions: Homo sapiens, read-out: Proliferation EC50
Method in brief: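 Z-138 cells exposed 5 days at 37 °C, 5% CO2 to nine-point 3-fold dilutions (final top 20 μM, 0.2% DMSO), in triplicate. Viability read as ATP by CellTiter-Glo luminescence; IC50 from 4-parameter fit of normalized dose-response curves.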

[4] = 120 h, Z-138 cells, 5 days, Cell Titer Glo

Sequence of PRMT5/MEP50 (O14744 other isoform, or with tags, fused parts or gaps): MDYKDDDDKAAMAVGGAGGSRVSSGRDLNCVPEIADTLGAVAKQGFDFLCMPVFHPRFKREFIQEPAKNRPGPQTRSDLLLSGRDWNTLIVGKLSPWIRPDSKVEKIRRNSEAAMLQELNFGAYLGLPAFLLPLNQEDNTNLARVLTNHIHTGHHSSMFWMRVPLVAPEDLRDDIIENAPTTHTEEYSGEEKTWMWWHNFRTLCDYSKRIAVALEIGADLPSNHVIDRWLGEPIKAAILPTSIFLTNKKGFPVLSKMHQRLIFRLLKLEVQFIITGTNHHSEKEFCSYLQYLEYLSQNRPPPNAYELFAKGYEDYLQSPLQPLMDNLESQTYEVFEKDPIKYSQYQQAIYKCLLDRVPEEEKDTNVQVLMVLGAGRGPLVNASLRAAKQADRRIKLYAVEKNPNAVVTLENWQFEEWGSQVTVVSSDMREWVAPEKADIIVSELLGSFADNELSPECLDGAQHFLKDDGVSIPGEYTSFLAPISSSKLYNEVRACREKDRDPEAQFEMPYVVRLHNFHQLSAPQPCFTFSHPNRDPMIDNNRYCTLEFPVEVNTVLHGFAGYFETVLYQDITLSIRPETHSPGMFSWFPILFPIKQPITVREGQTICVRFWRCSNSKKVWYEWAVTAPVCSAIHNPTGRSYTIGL
Sequence of PRMT5/MEP50 (Q9BQA1 other isoform, or with tags, fused parts or gaps partner): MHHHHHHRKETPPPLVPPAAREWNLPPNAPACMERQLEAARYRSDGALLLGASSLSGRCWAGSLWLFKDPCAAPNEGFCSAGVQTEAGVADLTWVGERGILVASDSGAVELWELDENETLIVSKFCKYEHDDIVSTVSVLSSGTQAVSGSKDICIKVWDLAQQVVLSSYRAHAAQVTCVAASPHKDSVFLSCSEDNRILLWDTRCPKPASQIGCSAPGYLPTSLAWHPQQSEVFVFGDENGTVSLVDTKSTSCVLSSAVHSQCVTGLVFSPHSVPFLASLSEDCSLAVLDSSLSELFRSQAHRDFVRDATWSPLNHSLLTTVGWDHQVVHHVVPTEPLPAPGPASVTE

Structure (SMILES) | IC50 [1] [nM] | EC50 [2] [nM] | IC50 ([1]; PRMT5 biochemical assay) [nM] | EC50 ([2]; In Cell Western methylation) [nM] | EC50 ([3]; 120 h, Z-138 cells, 5 days) [nM] | EC50 [3, 4] [nM] | EC50 ([3]; Z-138, 120 h) [nM]
CN1CCC(Nc2cc(C(=O)NC[C@H](O)CN3CCc4ccccc4C3)ncn2)CC1 [Compound 206] | < 100 | 101 to 1000 | – | – | 1000 to 10000 | – | –
O=C(NC[C@H](O)CN1CCc2ccccc2C1)c1ccc(OCCCN2CCC2)cc1 [Compound 373] | < 100 | < 100 | – | – | 1000 to 10000 | – | –
CC(=O)N1CC(Nc2cc(C(=O)NC[C@H](O)CN3CCc4ccc(C)cc4C3)ncn2)C1 [Compound 667] | – | – | 101 to 1000 | < 100 | – | 1000 to 10000 | –
O=C(NCCCN1CCc2ccccc2C1)c1cc(NC2COC2)ncn1 [Compound 651] | – | – | 101 to 1000 | > 1000 | – | > 5000 | –
CCNCCCOc1ccc(C(=O)NC[C@H](O)CN2CCc3ccccc3C2)cc1 [Compound 396] | < 100 | < 100 | – | – | 1000 to 10000 | – | –
COC(CNC(=O)c1cc(NC2CCN(C(C)=O)CC2)ncn1)CN1CCc2ccccc2C1 (stereo not drawn) [Compound 542] | – | – | 101 to 1000 | 101 to 1000 | – | > 5000 | –
CCSCCNc1cc(C(=O)NC[C@H](O)CN2CCc3ccccc3C2)ncn1 [Compound 556] | – | – | < 100 | < 100 | – | – | 101 to 1000
CCSCCN1CC(Nc2cc(C(=O)NC[C@H](O)CN3CCc4ccccc4C3)ncn2)C1 [Compound 581] | – | – | < 100 | 101 to 1000 | – | – | > 5000
O=C(NC[C@H](O)CN1CCc2ccccc2C1)c1cc(N[C@H]2CCOC2)ncn1 [Compound 351] | < 100 | < 100 | – | – | 101 to 1000 | – | –
CCS(=O)(=O)CCN1CCC(Nc2cc(C(=O)NC[C@H](O)CN3CCc4ccccc4C3)ncn2)CC1 [Compound 640] | – | – | < 100 | < 100 | – | – | 101 to 1000
CC(=O)N1CC(Nc2cc(C(=O)NCC(O)C(C)N3CCc4ccccc4C3)ncn2)C1 (stereo not drawn) [Compound 608] | – | – | 101 to 1000 | > 1000 | – | > 5000 | –
CC(=O)N1CCC(Nc2cc(C(=O)NC[C@H](O)CN3CCc4ccccc4C3)cc(OCCN(C)C)n2)CC1 [Compound 628] | – | – | < 100 | < 100 | – | < 100 | –
CC(=O)N1CCC(Nc2cc(C(=O)NC[C@H](O)CN3CCc4cc(C)ccc4C3)ccn2)CC1 [Compound 682] | – | – | < 100 | < 100 | – | 101 to 1000 | –

Continued, in another order:

IC50 [1] [nM] | EC50 [2] [nM] | IC50 ([1]; PRMT5 biochemical assay) [nM] | EC50 ([2]; In Cell Western methylation) [nM] | Structure (SMILES) | EC50 ([3]; 120 h, Z-138 cells, 5 days) [nM] | EC50 [3, 4] [nM] | EC50 ([3]; Z-138, 120 h) [nM]
– | – | < 100 | < 100 | CC(=O)N1CCC[C@@H](Nc2cc(C(=O)NC[C@H](O)CN3CCc4ccccc4C3)ncn2)C1 [Compound 571] | – | 1000 to 10000 | –
– | – | < 100 | < 100 | CC(=O)N(C)[C@H]1C[C@H](Nc2cc(C(=O)NC[C@H](O)CN3CCc4ccccc4C3)ncn2)C1 [Compound 564] | – | 101 to 1000 | –
– | – | < 100 | < 100 | O=C(NC[C@H](O)CN1CCc2ccccc2C1)c1cc(NC2CNC2)ccn1 [Compound 565] | – | 101 to 1000 | –
– | – | < 100 | 101 to 1000 | CN(C)CCN(C)c1nc(NC2CNC2)cc(C(=O)NC[C@H](O)CN2CCc3ccccc3C2)n1 [Compound 528] | – | 101 to 1000 | –
– | – | < 100 | < 100 | CNC(=O)[C@H]1C[C@H](Nc2cc(C(=O)NC[C@H](O)CN3CCc4ccccc4C3)ncn2)C1 [Compound 506] | – | 101 to 1000 | –
– | – | < 100 | < 100 | CNCCOc1cc(C(=O)NC[C@H](O)CN2CCc3ccccc3C2)ccn1 [Compound 420] | – | 1000 to 10000 | –
– | – | < 100 | < 100 | O=C(NC[C@H](O)CN1CCc2ccccc2C1)c1cc(NC2CCN(C(=O)C3CC3)CC2)ccn1 [Compound 638] | – | < 100 | –
– | – | < 100 | < 100 | CNC(=O)[C@H]1CC[C@H](Nc2cc(C(=O)NC[C@H](O)CN3CCc4ccccc4C3)ncn2)CC1 [Compound 602] | – | 101 to 1000 | –
– | – | < 100 | < 100 | CC(=O)N1CCC(Nc2cc(C(=O)NCCCN3CCc4ccccc4C3)ccn2)CC1 [Compound 654] | – | 1000 to 10000 | –
– | – | < 100 | < 100 | CC(=O)[C@H]1CC[C@H](Nc2cc(C(=O)NC[C@H](O)CN3CCc4ccccc4C3)ncn2)CC1 [Compound 600] | – | 1000 to 10000 | –
– | – | < 100 | < 100 | CN(C)C(=O)[C@H]1C[C@H](Nc2cc(C(=O)NC[C@H](O)CN3CCc4ccccc4C3)ncn2)C1 [Compound 507] | – | 101 to 1000 | –
– | – | < 100 | < 100 | Cc1cccc2c1CN(C[C@@H](O)CNC(=O)c1cc(NC3COC3)ncn1)CC2 [Compound 673] | – | 1000 to 10000 | –
– | – | < 100 | < 100 | COCCN1CCC(Nc2ccnc(C(=O)NC[C@H](O)CN3CCc4ccccc4C3)c2)CC1 [Compound 550] | – | 1000 to 10000 | –
